Experimental data reported in patent US7868026B2, “Therapeutic compounds” (Pfizer Inc., priority 2005, dated 2011).
pIC50, pKi: −log10 of the molar value. Like-named read-outs stand apart in the source and are kept apart here.

Assays:
Assay type in all cases: biochemical
CYP3A4 [1] = biological target: T1, CYP3A4 (Homo sapiens, UniProt P08684); experiment: Determination of compound Kiapp against recombinant CYP3A4 enzyme (BFC fluorescent substrate)
Procedure, shortened: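 Recombinant CYP3A4 (5.5 or 8 nM, with or without b5 depending on source) pre-incubated with inhibitor ≥30 min at room temperature in 100 mM sodium phosphate pH 7.0, 5 mM TCEP, 2% DMF. Reaction started with 200 uM NADPH and 5 uM BFC; initial fluorescence rates over 5 min fitted to Morrison tight-binding (non-partial) or Szedlacsek (partial) equations for Kiapp.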

CYP3A4 [2] = biological target: T1, CYP3A4; experiment: Determination of IC50 against CYP3A4 by measurement of inhibition of testosterone metabolism (human liver microsomes, 6-β-OH-testosterone by LC-MS/MS); set-up: 0.1 mg/mL human liver microsomes; conditions: read-out: IC50 (Testo.)
Experimental: 2. Determination of IC50 Against CYP3A4 by Measurement of Inhibition of Testosterone Metabolism
This assay was performed using a standard 96 well plate design. […] The incubation substrate mix contains 25 μM testosterone, 0.1 mg/mL human liver microsomes, 1 mM NADPH, and potassium phosphate buffer (100 mM, pH 7.4). Quantitation of metabolite peak area ratio against an internal standard is determined by LC-MS/MS analysis. The production of 6-β-OH-testosterone from testosterone metabolism is determined after incubation for eight minutes by comparison to a standard curve generated for the metabolite
Samples were analyzed in the MRM mode using a Sciex API 3000 mass spectrometer (Applied Biosystems, Foster City, Calif.) with a Paradigm MS4 binary pump (Michrom BioResources Inc., Auburn, Calif.) and a LEAP CTC PAL autosampler (LEAP Technologies, Carrboro, N.C.). A Phenomenex Synergi, 4μ, Polar-RP, 10×2.0 mm column (Phenomenex, Torrance, Calif.) was used for separation with a mobile phase composition of: 0.1% formic acid in water (A) and: 0.1% formic acid in methanol (B). The following gradient was used: […]
The sample injection volume was 10 μL and flow was split post-column with 0.4 mL/min going to the mass spectrometer. Analysis was performed using the following API 3000 mass spectrometer settings: […]

CYP3A4 [3] = biological target: T1, CYP3A4; experiment: Determination of IC50 against CYP3A4 by measurement of inhibition of midazolam metabolism (human liver microsomes, 1-hydroxymidazolam by LC-MS/MS); set-up: 0.1 mg/mL human liver microsomes; conditions: 2 μM midazolam, 0.1 mg/mL human liver microsomes
Procedure, shortened: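 Human liver microsomes (0.1 mg/mL) incubated 8 min with 2 μM midazolam and 1 mM NADPH in 100 mM potassium phosphate, pH 7.4. 1-Hydroxymidazolam quantified by LC-MS/MS (MRM) as peak area ratio to internal standard against a metabolite standard curve.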

[4] = Baculo. enzyme preparation, read-out: Kiapp (BFC, Baculo.)
[5] = Super. enzyme preparation, read-out: Kiapp (BFC, Super.)

T1 sequence (P08684 whole entry): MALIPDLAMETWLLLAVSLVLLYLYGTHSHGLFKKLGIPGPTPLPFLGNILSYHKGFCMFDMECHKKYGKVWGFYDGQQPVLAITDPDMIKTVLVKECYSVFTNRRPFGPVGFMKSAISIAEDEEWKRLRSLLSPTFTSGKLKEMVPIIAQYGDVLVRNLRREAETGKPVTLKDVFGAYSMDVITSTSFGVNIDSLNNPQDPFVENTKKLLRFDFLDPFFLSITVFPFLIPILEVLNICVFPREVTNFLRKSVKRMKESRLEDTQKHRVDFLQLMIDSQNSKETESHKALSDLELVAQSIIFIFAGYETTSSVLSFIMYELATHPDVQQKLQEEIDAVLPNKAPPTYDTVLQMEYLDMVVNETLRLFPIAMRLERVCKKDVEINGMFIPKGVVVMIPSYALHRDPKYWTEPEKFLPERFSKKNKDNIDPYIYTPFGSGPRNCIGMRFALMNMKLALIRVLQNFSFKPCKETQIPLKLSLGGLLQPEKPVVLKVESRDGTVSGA

Compound	pKi (CYP3A4 [1]; [4])	pKi (CYP3A4 [1]; [5])	pIC50 (CYP3A4 [2])	pIC50 (CYP3A4 [3])
CCOc1cncc(NS(=O)(=O)c2ccccc2C(=O)NC(C)C2CC2)c1 (stereo not shown) [Example 299, N-(1-cyclopropylethyl)-2-{[(5-ethoxypyridin-3-yl)amino]sulfonyl}benzamide]	7.25	7.69	7.28	7.59
CCOc1cncc(NS(=O)(=O)c2ccccc2C(=O)NC2CC2)c1 [Example 301, N-cyclopropyl-2-{[(5-ethoxypyridin-3-yl)amino]sulfonyl}benzamide]	6.39	6.82	< 6.12	6.85
COc1cncc(NS(=O)(=O)c2ccc(F)cc2C(=O)N2CCCC(C)C2)c1 (stereo not shown) [Example 267, 4-fluoro-N-(5-methoxypyridin-3-yl)-2-[(3-methylpiperidin-1-yl)carbonyl]benzenesulfonamide]	6.57	7.36	6.67	6.92
CC(C)(C)CNC(=O)c1ccccc1S(=O)(=O)Nc1cccnc1 [Example 44, N-(2,2-dimethylpropyl)-2-[(pyridin-3-ylamino)sulfonyl]benzamide]	6.21		6.78	7.14
CN(Cc1ccccc1F)C(=O)c1ccccc1S(=O)(=O)Nc1cccnc1 [Example 73, N-(2-fluorobenzyl)-N-methyl-2-[(pyridin-3-ylamino)sulfonyl]benzamide]	6.91	7.97	> 8.52	7.42
COc1ccncc1NS(=O)(=O)c1ccccc1C(=O)NC(C)(C)C [Example 254, N-(tert-butyl)-2-{[(4-methoxypyridin-3-yl)amino]sulfonyl}benzamide]	6.55	6.91	6.92	7.40
O=C(NCC1CC1)c1ccccc1S(=O)(=O)Nc1cccnc1 [Example 48, N-(cyclopropylmethyl)-2-[(pyridin-3-ylamino)sulfonyl]benzamide]	< 6.00		6.47	6.49
COc1ccncc1NS(=O)(=O)c1ccccc1C(=O)NCc1ccc(F)c(F)c1 [Example 257, N-(3,4-difluorobenzyl)-2-{[(4-methoxypyridin-3-yl)amino]sulfonyl}benzamide]	7.00	7.85	7.85	7.82
Cc1cc(CNC(=O)c2ccccc2S(=O)(=O)Nc2cnccc2C)ccc1F [Example 167, N-(4-fluoro-3-methylbenzyl)-2-{[(4-methylpyridin-3-yl)amino]sulfonyl}benzamide]	6.80	7.76	7.80	8.05
CCCCCNC(=O)c1ccccc1S(=O)(=O)Nc1cccnc1 [Example 61, N-pentyl-2-[(pyridin-3-ylamino)sulfonyl]benzamide]	6.88	8.11	7.52	7.57
COCCN(C)C(=O)c1ccccc1S(=O)(=O)Nc1cnccc1OC [Example 161, N-(2-methoxyethyl)-2-{[(4-methoxypyridin-3-yl)amino]sulfonyl}-N-methylbenzamide]	< 6.00	6.38	6.43	6.51
COc1cncc(NS(=O)(=O)c2ccccc2C(=O)NCCc2ccccc2Cl)c1 [Example 240, N-[2-(2-chlorophenyl)ethyl]-2-{[(5-methoxypyridin-3-yl)amino]sulfonyl}benzamide]	7.66	8.49	8.05	8.40
O=C(NCC1CCCC1)c1ccccc1S(=O)(=O)Nc1cccnc1 [Example 64, N-(cyclopentylmethyl)-2-[(pyridin-3-ylamino)sulfonyl]benzamide]	6.72	7.89	7.50	7.52
O=C(NCc1cccc2[nH]ccc12)c1ccccc1S(=O)(=O)Nc1cccnc1 [Example 52, N-(1H-indol-4-ylmethyl)-2-[(pyridin-3-ylamino)sulfonyl]benzamide]	6.25		7.14	7.57
CCCCC(CO)NC(=O)c1ccccc1S(=O)(=O)Nc1cncc(OC)c1 (stereo not shown) [Example 189, N-[1-(hydroxymethyl)pentyl]-2-{[(5-methoxypyridin-3-yl)amino]sulfonyl}benzamide]	6.76	7.56	7.32	7.62
CCCCN(C)C(=O)c1ccccc1S(=O)(=O)Nc1cnccc1C [Example 230, N-butyl-N-methyl-2-{[(4-methylpyridin-3-yl)amino]sulfonyl}benzamide]	6.43	7.11	7.06	7.38
CCOCCNC(=O)c1ccccc1S(=O)(=O)Nc1cnccc1OC [Example 223, N-(2-ethoxyethyl)-2-{[(4-methoxypyridin-3-yl)amino]sulfonyl}benzamide]	< 6.00	6.49	6.13	6.59
COc1cccc(CNC(=O)c2ccccc2S(=O)(=O)Nc2cccnc2)c1 [Example 46, N-(3-methoxybenzyl)-2-[(pyridin-3-ylamino)sulfonyl]benzamide]	6.49		7.64	7.64

Next, values leading:

pKi (CYP3A4 [1]; [4])	pKi (CYP3A4 [1]; [5])	pIC50 (CYP3A4 [2])	pIC50 (CYP3A4 [3])	Compound
6.27	6.77	< 6.12	6.92	COc1cncc(NS(=O)(=O)c2ccc(F)cc2C(=O)N(C)C(C)C)c1 [Example 304, 5-fluoro-N-isopropyl-2-{[(5-methoxypyridin-3-yl)amino]sulfonyl}-N-methylbenzamide]
6.85	7.55	7.19	7.28	COc1cncc(NS(=O)(=O)c2ccc(Cl)cc2C(=O)NCc2ccc(F)cc2)c1 [Example 310, 5-chloro-N-(4-fluorobenzyl)-2-{[(5-methoxypyridin-3-yl)amino]sulfonyl}benzamide]
6.23	6.86	7.00	7.17	CC1CC(C)CN(C(=O)c2ccccc2S(=O)(=O)N(C)c2cccnc2)C1 (stereo not shown) [Example 358, 2-[(3,5-dimethylpiperidin-1-yl)carbonyl]-N-methyl-N-pyridin-3-ylbenzenesulfonamide]
7.73	8.35	7.77	7.77	COc1cncc(NS(=O)(=O)c2ccccc2C(=O)NCc2ccc(Cl)c(Cl)c2)c1 [Example 314, N-(3,4-dichlorobenzyl)-2-{[(5-methoxypyridin-3-yl)amino]sulfonyl}benzamide]
6.84	7.77	7.44	7.36	COc1cncc(NS(=O)(=O)c2ccc(F)cc2C(=O)NCc2ccc(F)cc2)c1 [Example 307, 5-fluoro-N-(4-fluorobenzyl)-2-{[(5-methoxypyridin-3-yl)amino]sulfonyl}benzamide]
6.46	7.27	6.74	7.01	COc1cncc(NS(=O)(=O)c2ccccc2C(=O)N2CCCC2)c1 [Example 369, N-(5-methoxypyridin-3-yl)-2-(pyrrolidin-1-ylcarbonyl)benzenesulfonamide]
7.16	7.64	7.89	7.62	Cc1cncc(NS(=O)(=O)c2ccccc2C(=O)N2CC(C)CC(C)C2)c1 (stereo not shown) [Example 333, 2-[(3,5-dimethylpiperidin-1-yl)carbonyl]-N-(5-methylpyridin-3-yl)benzenesulfonamide]
6.69	7.64	7.26	7.22	Cc1cncc(NS(=O)(=O)c2ccccc2C(=O)NCC(C)(C)C)c1 [Example 330, N-(2,2-dimethylpropyl)-2-{[(5-methylpyridin-3-yl)amino]sulfonyl}benzamide]
7.26	7.67	8.05	8.15	Cc1cncc(NS(=O)(=O)c2ccccc2C(=O)N(C)CCc2ccccc2)c1 [Example 344, N-methyl-2-{[(5-methylpyridin-3-yl)amino]sulfonyl}-N-(2-phenylethyl)benzamide]
7.07	7.66	7.70	7.96	CN(CC1CCCC1)C(=O)c1ccccc1S(=O)(=O)Nc1cccnc1 [Example 324, N-(cyclopentylmethyl)-N-methyl-2-[(pyridin-3-ylamino)sulfonyl]benzamide]
6.86	7.67	7.41	7.70	CN(Cc1cccc(F)c1)C(=O)c1ccccc1S(=O)(=O)Nc1cccnc1 [Example 350, N-(3-fluorobenzyl)-N-methyl-2-[(pyridin-3-ylamino)sulfonyl]benzamide]
